# Patent publication US6737383B1, “Herbicidal oxadiazolidines” (priority 1999, dated 2004)
# Columns and labels:
# bedstraw = experiment: Test B pre/postemergence bedstraw; type: in vivo, Galium aparine
# Method in brief: (§1)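 Response is a visual 0-to-10 score relative to untreated plants, where 0 means no effect and 10 means complete control, taken twelve to sixteen days after application. Treatments went onto soil at planting and onto foliage of 1- to 4-leaf plants, using a surfactant-containing non-phytotoxic solvent.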
# surinam grass = experiment: Test B pre/postemergence surinam grass; type: in vivo, Brachiaria decumbens
# Method in brief: as §1
# cocklebur = experiment: Test B pre/postemergence cocklebur; type: in vivo, Xanthium strumarium
# Method in brief: as §1
# corn = experiment: Test B pre/postemergence corn; type: in vivo, Zea mays
# Method in brief: as §1
# crabgrass = experiment: Test B pre/postemergence crabgrass; type: in vivo, Digitaria sanguinalis
# Method in brief: as §1
# morningglory = experiment: Test B pre/postemergence morningglory; type: in vivo, Ipomoea hederacea
# Method in brief: as §1
# pigweed = experiment: Test B pre/postemergence pigweed; type: in vivo, Amaranthus retroflexus
# Method in brief: as §1
# rape = experiment: Test B pre/postemergence rape; type: in vivo, Brassica napus
# Method in brief: as §1
# soybean = experiment: Test B pre/postemergence soybean; type: in vivo, Glycine max
# Method in brief: as §1
# sugar beet = experiment: Test B pre/postemergence sugar beet; type: in vivo, Beta vulgaris
# Method in brief: as §1
# velvetleaf = experiment: Test B pre/postemergence velvetleaf; type: in vivo, Abutilon theophrasti
# Method in brief: as §1
# wild oat = experiment: Test B pre/postemergence wild oat; type: in vivo, Avena fatua
# Method in brief: as §1
# rice = experiment: Test B flood test rice; type: in vivo, Oryza sativa
# Method in brief: (§2)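 Plants were grown to the 2-leaf stage before treatment with test chemical, then held in a greenhouse for twelve to sixteen days. Injury was visually rated against untreated controls on a 0–10 scale, where 0 is no effect and 10 is complete control.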
# smallflower flatsedge = experiment: Test B flood test smallflower flatsedge; type: in vivo, Cyperus difformis
# Method in brief: as §2
# duck salad = experiment: Test B flood test duck salad; type: in vivo, Heteranthera limosa
# Method in brief: as §2
# bamyardgrass = experiment: Test B flood test barnyardgrass; type: in vivo, Echinochloa crus-galli
# Method in brief: as §2
# [1] = Preemergence, Rate 62 g/ha, scale of 0 to 10 where 0 is no effect and 10 is complete control
# [2] = Preemergence, Rate 125 g/ha, 0 is no effect, 10 is complete control
# [3] = Preemergence, Rate 250 g/ha, scale 0 to 10, 0 is no effect, 10 is complete control
# [4] = Preemergence, Rate 500 g/ha, scale of 0 to 10 where 0 is no effect and 10 is complete control
# [5] = Rate 62 g/ha, Postemergence, scale of 0 to 10 where 0 is no effect and 10 is complete control
# [6] = Rate 125 g/ha, Postemergence, scale 0 to 10
# [7] = Rate 500 g/ha, Postemergence, scale 0 to 10
# [8] = Rate 62 g/ha, headed Pre-emergence (flood test species), scale 0 to 10 (0 no effect, 10 complete control)
# [9] = Rate 125 g/ha, Pre-emergence, flood test species, scale 0 to 10 where 0 is no effect and 10 is complete control
# [10] = Rate 250 g/ha, Pre-emergence, flood-test species, scale 0 to 10, 0 is no effect, 10 is complete control
# [11] = Rate 500 g/ha, Pre-emergence, flood test species, scale 0 to 10 (0 no effect, 10 complete control)
smiles,measurement,setting,value
CC(C)N(C(=O)n1oc(=O)n(Cc2ccco2)c1=O)c1ccc(Cl)cc1 [Compound 206],Bedstraw plant response rating,bedstraw; [1],0
same,Bedstraw plant response rating (0 to 10 scale),bedstraw; [2],0
same,Bedstraw plant response rating,bedstraw; [3],0
same,"Plant response rating, Bedstraw",bedstraw; [4],0
same,Bedstraw plant response rating,bedstraw; [5],0
same,Bedstraw plant response rating,bedstraw; [6],0
same,"Plant response rating (0 to 10; 0 is no effect, 10 is complete control), Bedstraw","bedstraw; Rate 250 g/ha, Postemergence",0
same,Bedstraw plant response rating,bedstraw; [7],0
same,B. signalgrass plant response rating,surinam grass; [1],0
same,B. signalgrass plant response rating (0 to 10 scale),surinam grass; [2],0
same,B. signalgrass plant response rating,surinam grass; [3],0
same,"Plant response rating, B. signalgrass",surinam grass; [4],0
same,B. signalgrass plant response rating,surinam grass; [5],0
same,B. signalgrass plant response rating,"surinam grass; Rate 125 g/ha, Postemergence, scale 0 (no effect) to 10 (complete control)",0
same,"Plant response rating, B. signalgrass","surinam grass; Rate 250 g/ha, Postemergence, scale 0 to 10, 0 is no effect, 10 is complete control",0
same,B. signalgrass plant response rating,"surinam grass; Rate 500 g/ha, Postemergence, scale 0 to 10, 0 no effect, 10 complete control",0
same,Cocklebur plant response rating,cocklebur; [1],0
same,Cocklebur plant response rating (0 to 10 scale),cocklebur; [2],0
same,Cocklebur plant response rating,cocklebur; [3],0
same,"Plant response rating, Cocklebur",cocklebur; [4],0
same,Cocklebur plant response rating,cocklebur; [5],0
same,Cocklebur plant response rating,cocklebur; [6],0
same,"Plant response rating (0 to 10; 0 is no effect, 10 is complete control), Cocklebur","cocklebur; Rate 250 g/ha, Postemergence",0
same,Cocklebur plant response rating,cocklebur; [7],0
same,Corn plant response rating,corn; [1],0
same,Corn plant response rating (0 to 10 scale),corn; [2],0
same,Corn plant response rating,corn; [3],0
same,"Plant response rating, Corn",corn; [4],0
same,Corn plant response rating,corn; [5],0
same,Corn plant response rating,corn; [6],0
same,"Plant response rating (0 to 10; 0 is no effect, 10 is complete control), Corn","corn; Rate 250 g/ha, Postemergence",0
same,Corn plant response rating,corn; [7],0
same,Crabgrass plant response rating,crabgrass; [1],0
same,Crabgrass plant response rating (0 to 10 scale),crabgrass; [2],0
same,Crabgrass plant response rating,crabgrass; [3],3
same,"Plant response rating, Crabgrass",crabgrass; [4],8
same,Crabgrass plant response rating,crabgrass; [5],0
same,Crabgrass plant response rating,crabgrass; [6],0
same,"Plant response rating (0 to 10; 0 is no effect, 10 is complete control), Crabgrass","crabgrass; Rate 250 g/ha, Postemergence",0
same,Crabgrass plant response rating,crabgrass; [7],0
same,Morningglory plant response rating,morningglory; [1],0
same,Morningglory plant response rating (0 to 10 scale),morningglory; [2],0
same,Morningglory plant response rating,morningglory; [3],0
same,"Plant response rating, Morningglory",morningglory; [4],0
same,Morningglory plant response rating,morningglory; [5],1
same,Morningglory plant response rating,morningglory; [6],1
same,"Plant response rating (0 to 10; 0 is no effect, 10 is complete control), Morningglory","morningglory; Rate 250 g/ha, Postemergence",2
same,Morningglory plant response rating,morningglory; [7],5
same,Redroot pigweed plant response rating,pigweed; [1],0
same,Redroot pigweed plant response rating (0 to 10 scale),pigweed; [2],0
same,Redroot pigweed plant response rating,pigweed; [3],0
same,"Plant response rating, Redroot pigweed",pigweed; [4],3
same,Redroot pigweed plant response rating,pigweed; [5],0
same,Redroot pigweed plant response rating,pigweed; [6],0
same,"Plant response rating (0 to 10; 0 is no effect, 10 is complete control), Redroot pigweed","pigweed; Rate 250 g/ha, Postemergence",3
same,Redroot pigweed plant response rating,pigweed; [7],0
same,Rape plant response rating,rape; [1],0
same,Rape plant response rating (0 to 10 scale),rape; [2],0
same,Rape plant response rating,rape; [3],0
same,"Plant response rating, Rape",rape; [4],0
same,Rape plant response rating,rape; [5],0
same,Rape plant response rating,rape; [6],0
same,"Plant response rating (0 to 10; 0 is no effect, 10 is complete control), Rape","rape; Rate 250 g/ha, Postemergence",0
same,Rape plant response rating,rape; [7],0
same,Soybean plant response rating,soybean; [1],0
same,Soybean plant response rating (0 to 10 scale),soybean; [2],1
same,Soybean plant response rating,soybean; [3],0
same,"Plant response rating, Soybean",soybean; [4],0
same,Soybean plant response rating,soybean; [5],0
same,Soybean plant response rating,soybean; [6],1
same,"Plant response rating (0 to 10; 0 is no effect, 10 is complete control), Soybean","soybean; Rate 250 g/ha, Postemergence",2
same,Soybean plant response rating,soybean; [7],2
same,Sugarbeets plant response rating,sugar beet; [1],0
same,Sugarbeets plant response rating (0 to 10 scale),sugar beet; [2],0
same,Sugarbeets plant response rating,sugar beet; [3],0
same,"Plant response rating, Sugarbeets",sugar beet; [4],0
same,Sugarbeets plant response rating,sugar beet; [5],0
same,Sugarbeets plant response rating,sugar beet; [6],0
same,"Plant response rating (0 to 10; 0 is no effect, 10 is complete control), Sugarbeets","sugar beet; Rate 250 g/ha, Postemergence",0
same,Sugarbeets plant response rating,sugar beet; [7],0
same,Velvetleaf plant response rating,velvetleaf; [1],0
same,Velvetleaf plant response rating,velvetleaf; [3],0
same,"Plant response rating, Velvetleaf",velvetleaf; [4],0
same,Velvetleaf plant response rating,velvetleaf; [5],0
same,Velvetleaf plant response rating,velvetleaf; [6],0
same,"Plant response rating (0 to 10; 0 is no effect, 10 is complete control), Velvetleaf","velvetleaf; Rate 250 g/ha, Postemergence",0
same,Wild oats plant response rating,wild oat; [1],0
same,Wild oats plant response rating,wild oat; [3],0
same,"Plant response rating, Wild oats",wild oat; [4],0
same,Wild oats plant response rating,wild oat; [5],0
same,Wild oats plant response rating,wild oat; [6],0
same,"Plant response rating (0 to 10; 0 is no effect, 10 is complete control), Wild oats","wild oat; Rate 250 g/ha, Postemergence",0
same,Rice plant response rating,rice; [8],0
same,Rice plant response rating,rice; [9],0
same,Rice plant response rating,rice; [10],0
same,Rice plant response rating,rice; [11],0
same,S. Flatsedge plant response rating,smallflower flatsedge; [8],0
same,S. Flatsedge plant response rating,smallflower flatsedge; [9],0
same,S. Flatsedge plant response rating,smallflower flatsedge; [10],0
same,S. Flatsedge plant response rating,smallflower flatsedge; [11],0
same,Ducksalad plant response rating,duck salad; [8],0
same,Ducksalad plant response rating,duck salad; [9],0
same,Ducksalad plant response rating,duck salad; [10],0
same,Ducksalad plant response rating,duck salad; [11],0
same,Barnyardgrass plant response rating,bamyardgrass; [8],0
same,Barnyardgrass plant response rating,bamyardgrass; [9],0
same,Barnyardgrass plant response rating,bamyardgrass; [10],0
same,Barnyardgrass plant response rating,bamyardgrass; [11],0
